# Earlier results as cited in patent US20250074935A1, “HETERODIMER COMPOSITIONS AND METHODS FOR THE TREATMENT OF OCULAR DISORDERS” (Ripple Therapeutics Corporation, priority 2020, published 2025).
# Details: given once a day
structure (smiles),measurement,value
CC(C)OC(=O)CCC/C=C\C[C@@H]1[C@@H](CC[C@@H](O)CCc2ccccc2)[C@H](O)C[C@@H]1O [latanoprost],mean IOP lowering,about 35%
